Experimental data as given in patent publication US20080220066A1 (HENDERSON MORLEY PLC, priority 2005, published 2008).
≈ marks a conversion by molar mass, not a printed value. Where two headings read alike, the source gives them in different places.

How the values were obtained:
[1] = test system: Herpes simplex virus (HSV); assay: HSV virus yield (infectious virus particle production); format: cell-based; settings: for HSV yield: solvent as listed per compound, Torasemide at 90 μg/ml
[2] = test system: Herpes simplex virus (HSV); assay: HSV standard plaque inhibition assay; format: cell-based; settings: for ICVT activity: HSV plaque inhibition assay; for IC50: Herpes simplex virus
Excerpt: Using Herpes simplex virus (HSV), 50% plaque inhibitory dose (1D50) were established using the standard plaque inhibition assay.

[3] = for Flux: Q24 divided by 24
Adenovirus = assay: 50% plaque inhibitory concentration, Adenovirus; settings: unidentified adenovirus, A549, read-out: Furosemide IC50

CCCCNc1cc(C(=O)O)cc(S(N)(=O)=O)c1Oc1ccccc1 [Bumetanide]
HSV yield [1]: HSV yield reduced Borderline

C[C@@H]1O[C@@H](O[C@H]2C[C@@H](O)[C@]3(CO)[C@H]4[C@H](O)C[C@]5(C)[C@@H](C6=CC(=O)OC6)CC[C@]5(O)[C@@H]4CC[C@]3(O)C2)[C@H](O)[C@H](O)[C@H]1O [Strophanthin G]
HSV yield [1]: HSV yield reduced Borderline

CC(=O)Nc1nnc(S(N)(=O)=O)s1 [Acetazolamide]
ICVT activity [2]: only ‘borderline’ CVI activity

NS(=O)(=O)c1cc(C(=O)O)c(NCc2ccco2)cc1Cl [Furosemide, 5-(Aminosulfonyl)-4-chloro-2-[(2-furanylmethyl)amino]benzoic acid]
maximum concentrations observed in the receptor phase ([3]; 40:40:20 gels): 543.60 µg/mL
Release date ([3]; Ampule Formulation): 667 μg cm^−2 h^0.5
Q24 ([3]; Ampule Formulation (8% HPC)): 2724 μg cm^−2
Flux ([3]; Ampule Formulation): 111 μg cm^−2 h^−1
% applied dose ([3]; Gel 1:1, pH 7): 17.9%
Release Rate ([3]; Gel 1:1, pH 7): 7.18 μg cm^−2 h^0.5
Flux ([3]; Gel 1:1, pH 7): 2.69 μg cm^−2 h^−1
Q24 ([3]; Gel 1:1, prototype 40:40:20 mix, pH 7, 24 h): 64.63 μg cm^−2
Q24 ([3]; Gel 14:1 (F:D), prototype 40:40:20 mix, […] 981NF, pH 5, 24 h): 543.60 μg cm^−2
Flux ([3]; Gel 14:1, pH 5): 22.65 μg cm^−2 h^−1
% applied dose ([3]; Gel 14:1, pH 5, assuming 2 g of gel in donor): 8.7%
Release Rate ([3]; Gel 14:1, pH 5, gradient of square root of time plot): 124.51 μg cm^−2 h^0.5
% applied dose ([3]; Gel 14:1, pH 7): 5.9%
Release Rate ([3]; Gel 14:1, pH 7): 77.482 μg cm^−2 h^0.5
Flux ([3]; Gel 14:1, pH 7): 15.24 μg cm^−2 h^−1
% applied dose ([3]; Gel 14:1, pH 9): 3.7%
Release Rate ([3]; Gel 14:1, pH 9): 43.389 μg cm^−2 h^0.5
Flux ([3]; Gel 14:1, pH 9): 9.61 μg cm^−2 h^−1
Q24 ([3]; Gel 14:1, prototype 40:40:20 mix, pH 7, 24 h): 365.65 μg cm^−2
Q24 ([3]; Gel 14:1, prototype 40:40:20 mix, pH 9, 24 h): 230.69 μg cm^−2
Release date ([3]; HPC Formulation): 2673 μg cm^−2 h^0.5
Q24 ([3]; HPC Formulation (revised 50:40:10 gel, 8% HPC, pH 5, 14:1)): 9085 μg cm^−2
Flux ([3]; HPC Formulation): 388 μg cm^−2 h^−1
Release date ([3]; Ultrez Formulation): 1027 μg cm^−2 h^0.5
Q24 ([3]; Ultrez Formulation (revised 50:40:10 gel, […] Ultrez, pH 5, 14:1)): 6128 μg cm^−2
Flux ([3]; Ultrez Formulation): 248 μg cm^−2 h^−1
reduction of release rate, 1:1 Gel versus 1:14 Gel ([3]; pH 7): 10.8 fold
Virus particles per cell (feline herpesvirus; each drug at its IC50, alone or both combined, No Drug 50): 0.25
production of infectious virus reduced by (feline herpesvirus; each drug at its IC50, individually or in combination): 99.5%
IC50 ([2]; BHK-21, read-out: Furosemide IC50, host cell BHK21): 800 µg/mL (≈ 2420 µM)
ICVT activity [2]: potent ICVT activity
IC50 ([2]; read-out: Furosemide IC50, host cell Vero): 1000 µg/mL (≈ 3020 µM)
IC50 (Adenovirus): 440 ± 114 µg/mL (≈ 1330 µM)

C[C@H]1O[C@@H](O[C@H]2[C@@H](O)C[C@H](O[C@H]3[C@@H](O)C[C@H](O[C@H]4CC[C@@]5(C)[C@H](CC[C@@H]6[C@@H]5CC[C@]5(C)[C@@H](C7=CC(=O)OC7)CC[C@]65O)C4)O[C@@H]3C)O[C@@H]2C)C[C@H](O)[C@@H]1O [Digitoxin]
HSV yield [1]: HSV yield reduced
ID50 ([2]; Digoxin, Digitoxin from powder 250 μg per ml in 70% ethanol, IV Lanoxin in 10% ethanol, virus not named at this place): 30 ng per ml
ICVT activity [2]: potent ICVT activity
comparative ‘ICVT-ivities’ ([2]; saturated solutions in 90% ethanol compared with Lanoxin, virus not named at this place): more effective than Digoxin

Cc1cccc(Nc2ccncc2S(=O)(=O)NC(=O)NC(C)C)c1 [Torasemide]
HSV yield [1]: HSV yield unaffected at 90 μg/ml

CCCCNC(=O)NS(=O)(=O)c1ccc(C)cc1 [Tolbutamide]
HSV yield reduced to zero ([1]; Solvent: PEG): HSV yield reduced to zero 300 μg/ml
HSV yield reduced to zero ([1]; Solvent: PG): HSV yield reduced to zero 300 μg/ml
ICVT activity [2]: only ‘borderline’ CVI activity

NS(=O)(=O)c1cc2c(cc1Cl)NCNS2(=O)=O [Hydrochiorothiazide, Hydrochlorothiazide]
HSV yield reduced to zero at ([1]; Solvent: NaOH 1% aqueous): HSV yield reduced to zero at 600 ug/ml
ICVT activity [2]: only ‘borderline’ CVI activity
